Common to all, as to assay type: in vivo
The test system of test [1] is Spodoptera litura. As to the kind of experiment: Spodoptera litura test (PRODLI). As to conditions: application rate 20 ppm; synthetic feed, L3 larvae; after 6 days. As for the experimental part: Spodoptera litura Test (PRODLI) Solvent: 3 parts by weight of dimethylformamide Emulsifier: 1 part by weight of polyoxyethylene alkylphenyl ether To produce an appropriate active ingredient formulation, 1 part by weight of active ingredient is mixed with the stated amounts of solvent and emulsifier, and the concentrate is diluted with emulsifier-containing water to the desired concentration. The base of a PET vessel (diameter 7.5 cm, depth 4 cm) is covered with 2.3 g of a pulverulent synthetic feed mixture. Then 5 ml of the active ingredient formulation are added and mixed at the same time with the synthetic feed. After gelation, 5 L3 larvae of the cotton leafworm (Spodoptera litura) are placed into each vessel. After 6 days, the efficacy in % is determined 100% means that all of the larvae have been killed; 0% means that none of the larvae have been killed.

Test [2] deals with Phaedon cochleariae. The experiment in a line: Phaedon test (PHAECO spray treatment). As to conditions: application rate 100 g/ha, Chinese cabbage leaf discs, after 7 days. In short, it runs like this:
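Larval mortality was assessed 7 days after Phaedon cochleariae larvae were placed on dried, spray-treated Brassica pekinensis leaf discs. The formulation was an acetone/dimethylformamide concentrate with alkylaryl polyglycol ether emulsifier, diluted in emulsifier-containing water. Results are given as % kill, from 0 (no larvae dead) to 100 (all dead).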

For test [3], the system named is Spodoptera frugiperda. The experiment in a line: Spodoptera frugiperda test (SPODFR spray treatment). As to conditions: application rate 100 g/ha; maize leaf discs; after 7 days. In short, it runs like this: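 Mortality read-out at 7 days, given as % efficacy, where 100% means every caterpillar dead and 0% none. Caterpillars were placed on dried maize leaf discs that had been sprayed with test formulation. That formulation was an acetone/dimethylformamide concentrate diluted in emulsifier-containing water.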

For test [4], the system named is adult engorged Boophilus microplus females of the SP-resistant Parkhurst strain. The experiment in a line: Boophilus microplus test (DIP). The following applies: application rate 100 ppm, after 7 days. As for the experimental part:
Boophilus microplus Test (DIP)
Test animals: adult engorged Boophilus microplus females of the SP-resistant Parkhurst strain
Solvent: dimethyl sulphoxide
10 mg of active ingredient are dissolved in 0.5 ml of dimethyl sulphoxide. For the purpose of preparing a suitable formulation, the active ingredient solution is diluted with water to the concentration desired in each case.
This active ingredient formulation is pipetted into tubes. 8-10 ticks are transferred into a further tube with holes. The tube is immersed into the active ingredient formulation, and all ticks are completely wetted. After the liquid has run out, the ticks are transferred onto filter discs in plastic dishes and stored in a climate-controlled room.
The activity is assessed after 7 days by laying of fertile eggs. Eggs whose fertility is not outwardly visible are stored in glass tubes in a climate-controlled cabinet until the larvae hatch. An efficacy of 100% means that none of the ticks has laid any fertile eggs.

Test [5] has as its system Myzus persicae. The experiment in a line: Myzus test (MYZUPE spray treatment). As to conditions: application rate 100 g/ha; Chinese cabbage leaf discs; after 6 days. A digest of the protocol: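 Chinese cabbage leaf discs carrying all aphid stages sprayed with active ingredient in acetone/DMF with alkylaryl polyglycol ether emulsifier, diluted in emulsifier-containing water to the desired concentration. Efficacy (% aphids killed) scored after 6 days; 100% = all killed, 0% = none killed.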

The values that follow come from patent publication US9107411B2, “Indolecarboxamides and benzimidazolecarboxamides as insecticides and acaricides” (BAYER INTELLECTUAL PROPERTY GMBH, priority 2011, dated 2015).

Turning to `C#CCn1c(C(=O)NC(c2ccc(F)c(C(F)(F)F)c2)C(F)(F)F)cc2cc(C(=O)NC3CC3)c(Cl)cc21` (centres unmarked) [Compound 6], the efficacy in % in test [1], in test [2] and in test [3] was 100% in each case.
For `CCn1c(C(=O)NC(c2cccc(C(F)(F)F)c2)C(F)(F)F)cc2cc(C(=O)NC3(C#N)CC3)c(Cl)cc21` (centres unmarked) [Compound 7, 6-chloro-N^5-(1-cyanocyclopropyl)-1-ethyl-N^2-{2,2,2-trifluoro-1-[3-(trifluoromethyl)phenyl]ethyl}-1H-indole-2,5-dicarboxamide], in test [4], the “efficacy (laying of fertile eggs)” value is listed as 100%. Also, the efficacy in % in test [1] worked out at 100%; in test [5] it was 90%; in test [3], 100%. The pest or weed control at 100 g/ha in test [2] (Phaedon cochleariae, foliar, 168 h, read-out: efficacy in %) amounted to 100%.
